Reference: publication PMC5770468, “Cardiac glycoside/aglycones inhibit HIV-1 gene expression by a mechanism requiring MEK1/2-ERK1/2 signaling” (Scientific Reports, 2018)

How the values were obtained:
clinical strains of HIV = system: clinical strains of HIV; design: method as in PMID 23555254, PMID 17706876; details: cited from earlier work
[1] = design: method as in PMID 23555254, PMID 17706876, PMID 6409639; details: cited from earlier work
HeLa rtTA-HIV-ΔMls cells = experiment: In vitro therapeutic index (CC20/IC50) in HeLa rtTA-HIV-ΔMls cells; format: cell-based, human
Source text: Without median toxic dose (TD50) and half-maximal effective concentration (EC50) data available to calculate TIs (in vivo) from HIV patients treated with CSs, we determined the following TIs for each cell type treated with a CS (summarized in Supplementary Table S1): in vitro TIs from HeLa rtTA-HIV-ΔMls cells using CC20/IC50 (instead of CC50/IC50), in vitro TIs from 24ST1NLESG cells using CC50/IC50, and ex vivo TIs from HIV-infected PBMCs using CC50/IC50 (at day 14 of culture approximated from available cell viability trends for CC50s of Supplementary Fig. S13 and inferred near maximal IC50s).
Supplementary Table S1. Comparison of the in vitro (IVTI) and ex vivo therapeutic indices (EVTIs) of CSs and their impact on the expression of essential HIV-1 proteins.
Notes: data for CC20, CC50, and IC50s for each drug/compound were estimated from dose response curves in Figures 1-2, Supplementary Table S1, Supplementary Figures S2, S5, and S13, and Wong et al.
">" means the estimate has not been accurately determined but is greater than the highest concentration […]
"( )" indicates preliminary data that was not shown. aCC20 instead of CC50 was estimated from dose response curves and used for calculation of IVTIs. bCells were treated at ~IC90of a CS.
(1 picture or pasted object on this page, not shown here)

[2] = system: nascent protein synthesis; format: cell-based, human; details: 220 nM
Description: To monitor HIV-1 gene expression or replication, Gag release into cell culture supernatants were assayed by ELISA using a p24^CA antigen capture assay kit (AIDS & Cancer Virus Program, NCI-Frederick, Frederick, MD USA). Media harvested from HIV clinical isolates were diluted ~10 fold (or as necessary) prior to performing this assay. For analysis of HIV-1 and SR protein expression (and phosphorylation states with calf intestinal alkaline phosphatase treatments), cells were lysed and analyzed by western blot as previously outlined. Phosphatase inhibitors (e.g. 10 mM sodium fluoride, 2 mM sodium orthovanadate) were added to solutions requiring phospho protein analyses. […] Activation of MAPKs was determined by western blot quantitation and calculation of phospho/total protein levels. […] Stain-Free™ gels were casted and proteins were detected as described in 10% TGX-Stain-Free FastCast Acrylamide Kit from Bio-Rad (#161-0183). […] In representative gel/blot sets, samples were electrophoresed from the same experiment as controls, resolved simultaneously on identically cast gel(s), transferred to same PVDF (by either wet electrophoretic or by Bio-Rad Trans-Blot® Turbo Transfer System), and detected at same time. […] Cells were subsequently washed, whole cell lysates prepared, and proteins quantified by western blot using an anti-puromycin antibody (EMD Millipore, #anti-12D10) as described above. […]

C[C@H]1O[C@@H](O[C@H]2[C@@H](O)C[C@H](O[C@H]3[C@@H](O)C[C@H](O[C@H]4CC[C@@]5(C)[C@H](CC[C@@H]6[C@@H]5C[C@@H](O)[C@]5(C)[C@@H](C7=CC(=O)OC7)CC[C@]65O)C4)O[C@@H]3C)O[C@@H]2C)C[C@H](O)[C@@H]1O [Digoxin]
effective ex vivo concentration, fold below serum concentration of patients treated for heart conditions (digoxin) (clinical strains of HIV): 2–6 fold

C[C@H]1O[C@@H](O[C@H]2[C@@H](O)C[C@H](O[C@H]3[C@@H](O)C[C@H](O[C@H]4CC[C@@]5(C)[C@H](CC[C@@H]6[C@@H]5CC[C@]5(C)[C@@H](C7=CC(=O)OC7)CC[C@]65O)C4)O[C@@H]3C)O[C@@H]2C)C[C@H](O)[C@@H]1O [Digitoxin]
recommended serum concentration in patients treated for heart conditions [1]: 20 to 34 nM

C[C@@H]1O[C@@H](O[C@H]2C[C@@H](O)[C@]3(CO)[C@H]4[C@H](O)C[C@]5(C)[C@@H](C6=CC(=O)OC6)CC[C@]5(O)[C@@H]4CC[C@]3(O)C2)[C@H](O)[C@H](O)[C@H]1O [Ouabain]
better in vitro TI than digoxin (HeLa rtTA-HIV-ΔMls cells): 1.2 fold

COc1ccc(C[C@H]2NC[C@H](O)[C@H]2OC(C)=O)cc1 [anisomycin, Anisomycin]
effect on nascent protein synthesis [2]: little to no effect
